Where “and” joins values, the source holds several entries; their conditions need not be identical. Equal values may be shown once. Inconclusive results and toxic doses are left out. The calls were made as follows: active = survival T/C of 150% or more; inactive = T/C below 125% in these data.
System: CD2F1 mice, L1210 leukemia ip, survival T/C
Assay: NCI In Vivo Anticancer Drug Screen. Data for tumor model L1210 Leukemia (intraperitoneal) in CD2F1 (CDF1) mice
Conditions: higher = longer survival
Summary of the method: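 Tumor-bearing mice (transplanted tumor) were split into treated and vehicle control groups, and the measured endpoint of each treated group was divided by that of its vehicle controls.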

[1] = endpoint: mean survival time, dose: 100.0 mg/kg/injection, schedule: Q01DX009 (ip), vehicle: saline with Tween-80
[2] = endpoint: mean survival time, dose: 100.0 mg/kg/injection, schedule: Q04DX003 (ip), vehicle: saline with Tween-80
[3] = endpoint: mean survival time, dose: 200.0 mg/kg/injection, schedule: Q01DX009 (ip), vehicle: saline with Tween-80
[4] = endpoint: mean survival time, dose: 200.0 mg/kg/injection, schedule: Q04DX003 (ip), vehicle: saline with Tween-80
[5] = endpoint: mean survival time, dose: 100.0 mg/kg/injection, schedule: Q04DX002 (ip), vehicle: saline with Tween-80
[6] = endpoint: mean survival time, dose: 200.0 mg/kg/injection, schedule: Q04DX002 (ip), vehicle: saline with Tween-80
[7] = endpoint: mean survival time, dose: 400.0 mg/kg/injection, schedule: Q04DX002 (ip), vehicle: saline with Tween-80

Measured: T/C

C(=NCCN1CCOCC1)=NC1CCCCC1
inactive: endpoint: mean survival time, dose: 3.13 mg/kg/injection, schedule: Q01DX009 (ip), vehicle: saline with Tween-80 102 % of control | endpoint: mean survival time, dose: 6.25 mg/kg/injection, schedule: Q01DX009 (ip), vehicle: saline with Tween-80 91 % of control | endpoint: mean survival time, dose: 6.25 mg/kg/injection, schedule: Q04DX003 (ip), vehicle: saline with Tween-80 100 % of control | endpoint: mean survival time, dose: 12.5 mg/kg/injection, schedule: Q01DX009 (ip), vehicle: saline with Tween-80 104 % of control | endpoint: mean survival time, dose: 12.5 mg/kg/injection, schedule: Q04DX003 (ip), vehicle: saline with Tween-80 92 % of control

O=C1C=CC(=O)C1
inactive: endpoint: mean survival time, dose: 5.0 mg/kg/injection, schedule: Q04DX002 (ip), vehicle: saline with Tween-80 108 % of control

CC(N)C(=O)O (stereo not drawn)
inactive: endpoint: mean survival time, dose: 100.0 mg/kg/injection, schedule: Q01DX001 (ip), vehicle: saline 106 % of control | endpoint: mean survival time, dose: 200.0 mg/kg/injection, schedule: Q01DX001 (ip), vehicle: saline 112 % of control | endpoint: mean survival time, dose: 400.0 mg/kg/injection, schedule: Q01DX001 (ip), vehicle: saline 98 % of control

CC(=O)OCC1OC(Nc2nncs2)C(OC(C)=O)C1OC(C)=O (stereo not drawn)
inactive: endpoint: median survival time, dose: 12.5 mg/kg/injection, schedule: Q01DX005 (ip), vehicle: distilled water + Tween-80 97 % of control | endpoint: median survival time, dose: 25.0 mg/kg/injection, schedule: Q01DX005 (ip), vehicle: distilled water + Tween-80 96 % of control | endpoint: median survival time, dose: 50.0 mg/kg/injection, schedule: Q01DX005 (ip), vehicle: distilled water + Tween-80 102 % of control | endpoint: median survival time, dose: 100.0 mg/kg/injection, schedule: Q01DX005 (ip), vehicle: distilled water + Tween-80 100 % of control | endpoint: median survival time, dose: 200.0 mg/kg/injection, schedule: Q01DX005 (ip), vehicle: distilled water + Tween-80 100 % of control

CCc1ccc(C#N)cc1O
inactive: [1] 102 % of control | [2] 96 % of control | [3] 98 % of control | [4] 100 % of control | endpoint: mean survival time, dose: 400.0 mg/kg/injection, schedule: Q01DX009 (ip), vehicle: saline with Tween-80 96 % of control | endpoint: mean survival time, dose: 400.0 mg/kg/injection, schedule: Q04DX003 (ip), vehicle: saline with Tween-80 100 % of control

Cc1cc(NCCCCCCNc2cc(C)[n+](C)c3c(Cl)cccc23)c2cccc(Cl)c2[n+]1C
inactive: endpoint: mean survival time, dose: 12.5 mg/kg/injection, schedule: Q01DX009 (ip), vehicle: Klucel (hydroxypropylcellulose) (HPC) 98 % of control | endpoint: mean survival time, dose: 25.0 mg/kg/injection, schedule: Q01DX009 (ip), vehicle: Klucel (hydroxypropylcellulose) (HPC) 98 % of control | endpoint: mean survival time, dose: 50.0 mg/kg/injection, schedule: Q01DX009 (ip), vehicle: Klucel (hydroxypropylcellulose) (HPC) 94 % of control

Cc1cccc(SC(=O)Nc2ccc(Cl)cc2C)c1
inactive: [1] 95 % of control | [3] 95 % of control

O=C(O)c1cccc2c1-c1c(cccc1[N+](=O)[O-])C2
inactive: endpoint: mean survival time, dose: 50.0 mg/kg/injection, schedule: Q01DX009 (ip), vehicle: saline with Tween-80 96 % of control | [1] 97 % of control | [2] 101 % of control | [3] 91 % of control | [4] 100 % of control

NC(=O)c1cc(Cl)nc2nc(Cl)nc(N)c12
inactive: endpoint: median survival time, dose: 25.0 mg/kg/injection, schedule: Q01DX009 (ip), vehicle: saline with Tween-80 89 % of control | endpoint: median survival time, dose: 50.0 mg/kg/injection, schedule: Q01DX009 (ip), vehicle: saline with Tween-80 94 % of control | endpoint: median survival time, dose: 100.0 mg/kg/injection, schedule: Q01DX009 (ip), vehicle: saline with Tween-80 100 % of control | endpoint: median survival time, dose: 200.0 mg/kg/injection, schedule: Q01DX009 (ip), vehicle: saline with Tween-80 100 % of control | endpoint: median survival time, dose: 400.0 mg/kg/injection, schedule: Q01DX009 (ip), vehicle: saline with Tween-80 101 % of control

O=C(O)CCc1[nH]c2ccccc2c1CC(=O)O
inactive: [5] 91 % of control | [6] 98 % of control | [7] 119 % of control

Nc1nnc2c3[nH]cnc3ncn12
inactive: endpoint: mean survival time, dose: 100.0 mg/kg/injection, schedule: Q01DX001 (ip), vehicle: Klucel (hydroxypropylcellulose) (HPC) 98 % of control | endpoint: mean survival time, dose: 200.0 mg/kg/injection, schedule: Q01DX001 (ip), vehicle: Klucel (hydroxypropylcellulose) (HPC) 95 % of control | endpoint: mean survival time, dose: 400.0 mg/kg/injection, schedule: Q01DX001 (ip), vehicle: Klucel (hydroxypropylcellulose) (HPC) 104 % of control

Nc1ccc2nc3c4ccccc4c(O)n3nc2c1
inactive: [1] 89 % of control | [3] 104 % of control

O=C1C2C(C(=O)N1c1ccccc1)C1c3ccccc3C2C2CCCCN21 (stereo not drawn)
inactive: endpoint: mean survival time, dose: 12.5 mg/kg/injection, schedule: Q04DX003 (ip), vehicle: Klucel (hydroxypropylcellulose) (HPC) 95 % of control | endpoint: mean survival time, dose: 25.0 mg/kg/injection, schedule: Q04DX003 (ip), vehicle: Klucel (hydroxypropylcellulose) (HPC) 101 % of control | endpoint: mean survival time, dose: 50.0 mg/kg/injection, schedule: Q04DX003 (ip), vehicle: Klucel (hydroxypropylcellulose) (HPC) 93 % of control

CCCCC(=O)/C=C/c1ccccc1
inactive: endpoint: mean survival time, dose: 50.0 mg/kg/injection, schedule: Q04DX002 (ip), vehicle: saline with Tween-80 97 % of control | [5] 87 % of control | [6] 105 % of control | [7] 91 % of control

[Co].[N-]=C=S.[N-]=C=S.[N-]=C=S.[N-]=C=S
inactive: endpoint: mean survival time, dose: 25.0 mg/kg/injection, schedule: Q04DX002 (ip), vehicle: saline 104 % of control | endpoint: mean survival time, dose: 50.0 mg/kg/injection, schedule: Q04DX002 (ip), vehicle: saline 104 % of control | endpoint: mean survival time, dose: 100.0 mg/kg/injection, schedule: Q04DX002 (ip), vehicle: saline 117 % of control and 112 % of control

Source: PubChem BioAssay AID256 (DTP/NCI, 2004)
